Results: US8962844B2, “1,3,4-oxadiazole and 1,3,4-thiadiazole β-lactamase inhibitors” (priority 2012, dated 2015)
Where a name gives a salt, the structure may show the parent alone.

Experiments:
[1] = system: bacterial strains that express KPC β-lactamases; assay: Standard BLI potentiation MIC / synergy MIC (sMIC) assays run in the presence of a β-lactam, KPC expressing strains; type: cell-based; settings: more active for at least one KPC strain and/or better spectrum of activity than Avibactam; BLI in combination with a β-lactam
Summary of the method: (§1)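 Isogenic E. coli DH10B carrying cloned β-lactamase genes on pBR322-derived plasmid (blaTEM-1 promoter, tetracycline 25 μg/mL) tested by CLSI broth microdilution in CAMHB. Test compound and β-lactam each diluted and combined; MIC reported in presence of β-lactam.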

[2] = system: bacterial strains that express the class D cephalosporinase OXA-15; assay: Standard BLI potentiation MIC / synergy MIC (sMIC) assays run in the presence of a β-lactam, OXA-15 expressing strains; type: cell-based, E. coli; settings: BLI in combination with a β-lactam; comparison with Avibactam (comparator compound CCC)
Summary of the method: as §1

Structure (SMILES)	activity and/or spectrum of activity against bacterial strains that express KPC β-lactamases, compared with Avibactam [1]	activity against bacterial strains that express the class D cephalosporinase OXA-15, compared with Avibactam [2]
N=C(N)N[C@H]1C[C@@H](c2nnc([C@@H]3CC[C@@H]4CN3C(=O)N4OS(=O)(=O)O)s2)C1 [Compound 784, (2S,5R)-2-(5-((1s,3R)-3-guanidinocyclobutyl)-1,3,4-thiadiazol-2-yl)-7-oxo-1,6-diazabicyclo[3.2.1]octan-6-yl hydrogen sulfate]	more active than Avibactam	more active than Avibactam
N=C(N)NCCc1nnc([C@@H]2CC[C@@H]3CN2C(=O)N3OS(=O)(=O)O)s1 [Compound 794, (2S,5R)-2-(5-(2-guanidinoethyl)-1,3,4-thiadiazol-2-yl)-7-oxo-1,6-diazabicyclo[3.2.1]octan-6-yl hydrogen sulfate]	more active than Avibactam	more active than Avibactam
N[C@H]1C[C@@H](c2nnc([C@@H]3CC[C@@H]4CN3C(=O)N4OS(=O)(=O)O)s2)C1 [Compound 795, (2S,5R)-2-(5-((1s,3R)-3-aminocyclobutyl)-1,3,4-thiadiazol-2-yl)-7-oxo-1,6-diazabicyclo[3.2.1]octan-6-yl hydrogen sulfate]	more active than Avibactam	more active than Avibactam
